We go through one compound from patent publication US6653344B2, “Pharmaceutical preparations containing a dibenzocyclooctane lignan derivative for treatment of neurodegenerative disease” (Elcom Bio Technology Co., Ltd., priority 2000, dated 2003).

The subject of the assay is nitric oxide (NO) content in glutamate-damaged primary cultured rat cortical cells. As to the kind of experiment: Measurement of nitrite (Griess reagent), NO content. Format: cell-based. The settings on record: compound 1 M (1 μM) for 1 hr before 100 M glutamate, 24 hr. The procedure:
The content of nitrite isolated into culture broth from first cultured cortical cells was assayed by using Griess reagent by Dawson's method (Dawson V L, Brahbhatt H P, Mong J A and Dawson T M (1994) Expression of inducible nitric oxide synthase causes delayed neurotoxicity in primary neuronal-glial cortical cultures. Neuropharmacology 33: 1425-1430).
In case glutamate is treated to first cultured cortical cells of mice, formation of NO is increased. […] When schizandrin is treated at the 1 μM concentration, it decreased NO content increased by glutamate. […] When deoxyschizandrin, gomisin N and wuweizisu C are treated at 1 uM concentration to first cultured cortical cells toxicity-induced by glutamate, those maintained about 50% of normal state activity of GSH-px and glutathione decreased by glutamate and have protective activity on the activity of antioxidant enzymes.
Rat cortical cultures were treated with compounds at the concentration of 1 M for 1 hr before exposure to 100 M glutamate and then maintained for 24 hr. Values given represent the mean SD (n=3).
(The Griess reaction detects nitrite, a stable product of nitric oxide.)

Regarding `COc1cc2c(c(OC)c1OC)-c1c(cc(OC)c(OC)c1OC)C[C@](C)(O)[C@@H](C)C2` [schizandrin], the “Protection (NO content)” value is recorded as 40.2%.
